Assay results reported in US11235023B2, “Beta-hairpin peptidomimetic with elastase inhibitory activity and aerosol dosage forms thereof” (POLYPHOR AG, priority 2016, dated 2022).
Non-standard residues stand in square brackets, D forms with d. Residues, ends and D or L forms follow the SMILES beside them. Gly(octyl) = CCCCCCCC[C@H](N)C(=O)O

Tests used:
[1] = Phase-Ib single ascending dose study in patients with cystic fibrosis, safety and tolerability; format: in vivo, human
Source text: In this randomised, double-blind, placebo-controlled, parallel-group (per dose level) dose-escalation study, the safety and tolerability of single ascending doses (SAD) of acetate salt of cyclo(-OctG-Glu-Thr-Ala-Ser-Ile-Pro-Pro-Gln-Lys-Tyr-^DPro-Pro-) administered by inhalation in patients with cystic fibrosis (CF) was investigated. Additionally, the pharmacokinetics of the drug following a single ascending dose in plasma and sputum as well as its pharmacodynamic effect on neutrophil elastase activity in sputum were evaluated.
In this study, conducted by Inamed GmbH, Gauting, Germany, 24 subjects with cystic fibrosis, who fulfilled all the inclusion criteria and in whom no exclusion criterion was present, were included and received randomised treatment. They were grouped into 3 dose groups of 8 subjects each. 6 subjects received the formulation described in Example 1 and dilutions thereof and 2 subjects received placebo (0.5% [w/w] aqueous sodium chloride solution adjusted to pH 5.5 with 1 M HCl pharmaceutical grade). The oral inhalation of the above formulation as well as the placebo occurred via the Pari eFlow® XL 30 nebulizer device (Pari Pharma GmbH, Starnberg, Germany). The dose levels and corresponding concentrations of cyclo(-OctG-Glu-Thr-Ala-Ser-Ile-Pro-Pro-Gln-Lys-Tyr-^DPro-Pro-) (active compound) are summarized in Table 14.
The volume of placebo nebulizer solution corresponded to that of the active compound at a particular dose level. The duration of inhalation was estimated to be between 7 and 20 min. Adverse events were tabulated and summarized according to the current version of Medical Dictionary for Regulatory Activities.

[2] = Phase-Ib study in CF patients, sputum concentrations (LC-MS/MS); format: in vivo, human
Experimental: Concentrations of active compound in sputum were calculated and Cmax and AUC0-tlast were determined.
Spontaneous sputum samples for PK assessments were collected during the following time intervals/periods:
On Day −1 as soon as possible after the subject's arrival at the study site (blank PK), on Day 1 in the period of time between 1 h and 3 h after start of inhalation, and in the morning of Day 2, at approx. 24 h after start of inhalation. Moreover, any spontaneous sputum expectoration between 0-1 h after start of inhalation was collected.
Spontaneous sputum samples were collected in polystyrene Petri dishes and put on ice immediately. All processing steps had to be performed with cold reagents and on ice whenever possible. Plugs were separated from saliva, but the latter was not discarded. If a sputum sample was taken for both PK and neutrophil elastase activity in sputum analysis, the plug was split in 2 approximately equal parts. One part was processed for PK analysis the other one for evaluation of neutrophil elastase activity in sputum.
For PK processing, the resulting plug was split in approximately 2 equal parts. […] The weight of the sputum samples (SP1+SP3) was determined and all samples were immediately put on dry ice for freezing. […]
The pharmacokinetic parameters mentioned above were calculated based on actual blood and sputum sampling times using non-compartmental procedures.

CCCCCCCC[C@@H]1NC(=O)[C@@H]2CCCN2C(=O)[C@H]2CCCN2C(=O)[C@H](Cc2ccc(O)cc2)NC(=O)[C@H](CCCCN)NC(=O)[C@H](CCC(N)=O)NC(=O)[C@@H]2CCCN2C(=O)[C@@H]2CCCN2C(=O)[C@H]([C@@H](C)CC)NC(=O)[C@H](CO)NC(=O)[C@H](C)NC(=O)[C@H]([C@@H](C)O)NC(=O)[C@H](CCC(=O)O)NC1=O [active compound, cyclo(-OctG-Glu-Thr-Ala-Ser-Ile-Pro-Pro-Gln-Lys-Tyr-^DPro-Pro-)] (cyclo([Gly(octyl)]ETASIPPQKY[dP]P))
Deaths, serious and other significant adverse events ([1]; CF patients, single inhaled doses 80, 160, 320 mg): No death, no serious adverse events (AE) and no other significant AE
Causal relationship of TEAEs ([1]; human, in vivo): not related to the active compound
Inhalation-related local AEs ([1]; human, in vivo): no inhalation-related local AEs
Total number of AEs (all TEAEs) ([1]; human, in vivo): 6
Detection in sputum at 24 h after inhalation ([2]; all dose groups): still detected
Concentration in sputum relative to plasma ([2]; comparison of FIG. 4 and FIG. 3): approximately 10^3 fold
